In ChEMBL document CHEMBL1135388, “Design and synthesis of pyrrolidine-5,5-trans-lactams (5-oxohexahydropyrrolo[3,2-b]pyrroles) as novel mechanism-based inhibitors of human cytomegalovirus protease. 2. Potency and chirality” (J Med Chem, 2002):

Biological target: Acetylcholinesterase (Homo sapiens, UniProt P22303)
Assay: Concentration required for 50% Acetylcholinesterase inhibition

Chain of Acetylcholinesterase (P22303 whole entry): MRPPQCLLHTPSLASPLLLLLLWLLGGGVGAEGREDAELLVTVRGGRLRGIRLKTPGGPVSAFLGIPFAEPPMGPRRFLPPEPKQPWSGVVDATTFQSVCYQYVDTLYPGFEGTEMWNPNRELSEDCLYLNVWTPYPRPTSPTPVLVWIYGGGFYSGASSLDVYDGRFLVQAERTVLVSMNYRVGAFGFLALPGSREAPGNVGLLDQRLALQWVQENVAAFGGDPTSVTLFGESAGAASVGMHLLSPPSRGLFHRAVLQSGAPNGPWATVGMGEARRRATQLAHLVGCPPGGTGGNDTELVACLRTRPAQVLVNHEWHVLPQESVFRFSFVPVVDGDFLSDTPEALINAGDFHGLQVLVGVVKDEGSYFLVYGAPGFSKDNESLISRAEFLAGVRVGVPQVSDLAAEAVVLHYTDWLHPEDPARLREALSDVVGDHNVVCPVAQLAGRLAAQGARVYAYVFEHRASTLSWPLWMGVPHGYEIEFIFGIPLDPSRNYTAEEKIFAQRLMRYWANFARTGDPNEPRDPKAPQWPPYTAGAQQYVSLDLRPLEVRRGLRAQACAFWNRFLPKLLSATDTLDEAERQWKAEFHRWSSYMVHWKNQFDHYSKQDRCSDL

C[C@@H]1C(=O)N(C(=O)C2CC2)[C@H]2CCN(C(=O)[C@@H]3CCCN3S(=O)(=O)c3cccc4c(N(C)C)cccc34)[C@H]12 and CC(=O)N1C(=O)[C@@H](C)[C@@H]2[C@@H]1CCN2C(=O)[C@@H]1CCCN1S(=O)(=O)c1cccc2c(N(C)C)cccc12 cannot be ordered by IC50: > 100 µM for the first, > 100 µM for the second.

Biological target: not listed separately
Assay: Concentration required for 50% elastase inhibition

C[C@@H]1C(=O)N(C(=O)C2CC2)[C@H]2CCN(C(=O)[C@@H]3CCCN3S(=O)(=O)c3cccc4c(N(C)C)cccc34)[C@H]12 and CC(=O)N1C(=O)[C@@H](C)[C@@H]2[C@@H]1CCN2C(=O)[C@@H]1CCCN1S(=O)(=O)c1cccc2c(N(C)C)cccc12 cannot be ordered by IC50: > 10 µM for the first, > 10 µM for the second.

Biological target: T1, Capsid scaffolding protein (Human cytomegalovirus (strain AD169) (HHV-5) (Human herpesvirus 5), UniProt P16753)
T1 sequence (P16753 whole entry): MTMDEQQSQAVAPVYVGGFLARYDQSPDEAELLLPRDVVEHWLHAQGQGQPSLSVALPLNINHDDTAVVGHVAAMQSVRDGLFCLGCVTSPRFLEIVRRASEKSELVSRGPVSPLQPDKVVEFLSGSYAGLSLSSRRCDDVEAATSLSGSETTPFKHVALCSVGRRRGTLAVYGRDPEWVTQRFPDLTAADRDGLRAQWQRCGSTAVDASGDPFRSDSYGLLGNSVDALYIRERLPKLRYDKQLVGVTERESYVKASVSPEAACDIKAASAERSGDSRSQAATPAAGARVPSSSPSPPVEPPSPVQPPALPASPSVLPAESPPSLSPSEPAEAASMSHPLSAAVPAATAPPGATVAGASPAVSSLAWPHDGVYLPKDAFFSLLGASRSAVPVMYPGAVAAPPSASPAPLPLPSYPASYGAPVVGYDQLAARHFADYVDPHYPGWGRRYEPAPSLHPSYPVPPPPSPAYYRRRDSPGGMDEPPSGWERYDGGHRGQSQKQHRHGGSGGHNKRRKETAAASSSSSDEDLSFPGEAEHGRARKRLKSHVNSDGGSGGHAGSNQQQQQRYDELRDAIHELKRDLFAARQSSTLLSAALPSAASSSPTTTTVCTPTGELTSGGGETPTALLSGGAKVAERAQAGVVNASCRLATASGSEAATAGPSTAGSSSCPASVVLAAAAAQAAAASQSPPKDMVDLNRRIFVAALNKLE
Assay: Inhibition of Human cytomegalo virus(HCMV) protease activity measured by HPLC assay
Design: species or system Human herpesvirus 5 strain AD169

First: CC(=O)OCC(=O)N1C(=O)C(C)C2C1CCN2C(=O)OCc1ccccc1 (centres undefined)
Second: CC(=O)OCC(=O)N1C(=O)[C@@H](C)C2[C@@H]1CCN2C(=O)OCc1ccccc1 (some centres undefined)
The IC50 of the first is 2.2-fold higher: 13 µM for the first, 6 µM for the second.

CC(=O)N1C(=O)[C@@H](C)C2[C@@H]1CCN2C(=O)C(=O)c1cccn1C (some centres undefined) and CC(=O)N1C(=O)[C@@H](C)C2[C@@H]1CCN2C(=O)Cc1c(C)[nH]c2ccc(F)cc12 (some centres undefined) are within 1.5-fold of each other in IC50: 5 µM for the first, 6 µM for the second.

C[C@@H]1C(=O)N(C(=O)CCO)[C@H]2CCN(C(=O)OCc3ccccc3)C12 (some centres undefined) and CC(C)C(=O)N1C(=O)[C@@H](C)C2[C@@H]1CCN2C(=O)OCc1ccccc1 (some centres undefined) are within 1.5-fold of each other in IC50: 133 µM for the first, 126 µM for the second.

First: C[C@@H]1C(=O)N(C(=O)C2CCC2)[C@H]2CCN(C(=O)OCc3ccccc3)C12 (some centres undefined)
Second: C[C@@H]1C(=O)N(C(=O)C(C)(C)C)[C@H]2CCN(C(=O)OCc3ccccc3)C12 (some centres undefined)
The IC50 of the first is lower: 32 µM for the first, > 500 µM for the second. The first is the more potent here.

Biological target: T1, Capsid scaffolding protein
Assay: Concentration required for inhibition of human cytomegalo virus (HCMV) protease activity.
Design: species or system Human herpesvirus 5 strain AD169

Compared with C[C@H]1C(=O)N(C(=O)C2CC2)[C@@H]2CCN(C(=O)C3CCCCN3S(=O)(=O)c3cccc4c(N(C)C)cccc34)[C@H]21 (some centres undefined), CC(=O)N1C(=O)[C@H](C)[C@H]2[C@H]1CCN2C(=O)[C@@H]1CCCN1S(=O)(=O)c1cccc2c(N(C)C)cccc12 is higher in IC50: 13 µM for the first, > 500 µM for the second.

Going from CC(=O)N1C(=O)[C@H](C)[C@H]2[C@H]1CCN2C(=O)[C@@H]1CCCN1S(=O)(=O)c1ccc([N+](=O)[O-])cc1 to CC(=O)N1C(=O)[C@H](C)[C@H]2[C@H]1CCN2C(=O)[C@@H]1CCCN1S(=O)(=O)c1ccc(C)cc1, the IC50 rises from 11 µM to 159 µM (14-fold). The first is the more potent here.

First: C[C@@H]1C(=O)N(C(=O)C2CC2)[C@H]2CCN(C(=O)[C@@H]3CCCN3S(=O)(=O)Cc3cccc(N(C)C)c3)[C@H]12
Second: C[C@@H]1C(=O)N(C(=O)C2CC2)[C@H]2CCN(C(=O)[C@@H]3CCCN3S(=O)(=O)c3cccc(C(=O)N(C)C)c3)[C@H]12
The IC50 of the first is 1.6-fold higher: 2.2 µM for the first, 1.4 µM for the second.

First: Cc1ccc(S(=O)(=O)N2CCCC2C(=O)N2CC[C@H]3C2[C@H](C)C(=O)N3C=O)cc1 (some centres undefined)
Second: CC(C)Oc1cccc(S(=O)(=O)N2CCC[C@H]2C(=O)N2CC[C@H]3[C@H]2[C@H](C)C(=O)N3C(=O)C2CC2)c1
The IC50 of the first is 4.6-fold lower: 14 µM for the first, 65 µM for the second.

Going from CC(NS(=O)(=O)c1cccc2c(N(C)C)cccc12)C(=O)N1CC[C@@H]2[C@@H]1[C@@H](C)C(=O)N2C(=O)C1CC1 (some centres undefined) to C[C@H]1C(=O)N(C(=O)C2CC2)[C@@H]2CCN(C(=O)CN(C)S(=O)(=O)c3cccc4c(N(C)C)cccc34)[C@H]21, the IC50 rises from 7 µM to > 100 µM.

First: COc1ccc(C(=O)N2C(=O)[C@@H](C)C3[C@@H]2CCN3C(=O)OCc2ccccc2)cc1 (some centres undefined)
Second: C[C@@H]1C(=O)N(C(=O)C2Cc3ccccc32)[C@H]2CCN(C(=O)OCc3ccccc3)C12 (some centres undefined)
The IC50 of the first is higher: > 500 µM for the first, 11.5 µM for the second. The second is the more potent here.

First: C[C@@H]1C(=O)N(CC(O)COc2ccccc2)[C@H]2CCN(C(=O)OCc3ccccc3)C12 (some centres undefined)
Second: C[C@@H]1C(=O)N(C=O)[C@H]2CCN(C(=O)OCc3ccccc3)C12 (some centres undefined)
The IC50 of the first is higher: > 500 µM for the first, 398 µM for the second.

C[C@@H]1C(=O)N(C(=O)C2CC2)[C@H]2CCN(C(=O)OCc3ccccc3)C12 (some centres undefined) and CC1CC1C(=O)N1C(=O)[C@@H](C)C2[C@@H]1CCN2C(=O)OCc1ccccc1 (some centres undefined) are within 1.5-fold of each other in IC50: 9 µM for the first, 10 µM for the second.

Compared with CC(=O)N1C(=O)[C@H](C)[C@H]2[C@H]1CCN2C(=O)[C@@H]1CCCN1C(=O)c1ccccc1, CC(=O)N1C(=O)[C@@H](C)[C@@H]2[C@@H]1CCN2C(=O)[C@@H]1CCCN1C(=O)c1ccccc1 is lower in IC50: > 500 µM for the first, 50 µM for the second. The second is the more potent here.

Going from CC(=O)N1C(=O)[C@@H](C)C2[C@@H]1CCN2S(=O)(=O)CCc1ccccc1 (some centres undefined) to CC(=O)N1C(=O)[C@@H](C)C2[C@@H]1CCN2CC(=O)Cc1ccccc1 (some centres undefined), the IC50 rises from 45 µM to 79 µM (1.8-fold). The first is the more potent here.

Going from C[C@@H]1C(=O)N(C(=O)C2[C@@H](C)[C@@H]2C)[C@H]2CCN(C(=O)OCc3ccccc3)C12 (some centres undefined) to C[C@@H]1C(=O)N(C(=O)C2[C@@H](C)[C@H]2C)[C@H]2CCN(C(=O)OCc3ccccc3)C12 (some centres undefined), the IC50 falls from > 100 µM to 72 µM. The second is the more potent here.

Compared with C[C@@H]1C(=O)N(C(=O)C2C(C)(C)C2(C)C)[C@H]2CCN(C(=O)OCc3ccccc3)C12 (some centres undefined), CC(=O)N1C(=O)[C@@H](C)C2[C@@H]1CCN2C(=O)COc1ccccc1 (some centres undefined) is lower in IC50: > 500 µM for the first, 63 µM for the second.

With CC(=O)N1C(=O)[C@@H](C)[C@@H]2[C@@H]1CCN2C(=O)[C@@H]1CCCN1S(=O)(=O)c1cccc2c(N(C)C)cccc12 the IC50 was 0.54 µM.

Biological target: Prothrombin (Homo sapiens, UniProt P00734)
Assay: Concentration required for 50% thrombin inhibition

C[C@@H]1C(=O)N(C(=O)C2CC2)[C@H]2CCN(C(=O)[C@@H]3CCCN3S(=O)(=O)c3cccc4c(N(C)C)cccc34)[C@H]12 and CC(=O)N1C(=O)[C@@H](C)[C@@H]2[C@@H]1CCN2C(=O)[C@@H]1CCCN1S(=O)(=O)c1cccc2c(N(C)C)cccc12 cannot be ordered by IC50: > 200 µM for the first, > 200 µM for the second.
